target: SIK2 (Homo sapiens, UniProt Q9H0K1); assay: SIK2 Enzymatic Assay High Version 2 (High ATP); format: biochemical; details: enzyme 6 nM, 6 mM ATP and 400 μM HDAC5tide (each 2× final concentration); 30 minutes pre-incubation, 2 hours; ADP-Glo Max luminescence; read-out: SIK2 high ATP IC50 (μM) (Test Example 2)
Procedure, shortened: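 At room temperature, enzyme (6 nM, 2× final) was preincubated with compound for 30 min, then 6 mM ATP and 400 μM HDAC5tide (both 2× final) were added for 2 h. ADP formed was measured by ADP-Glo Max (2 h reagent, 1 h detection) using luminescence.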

SIK2, sequence (Q9H0K1 whole entry, species assumed): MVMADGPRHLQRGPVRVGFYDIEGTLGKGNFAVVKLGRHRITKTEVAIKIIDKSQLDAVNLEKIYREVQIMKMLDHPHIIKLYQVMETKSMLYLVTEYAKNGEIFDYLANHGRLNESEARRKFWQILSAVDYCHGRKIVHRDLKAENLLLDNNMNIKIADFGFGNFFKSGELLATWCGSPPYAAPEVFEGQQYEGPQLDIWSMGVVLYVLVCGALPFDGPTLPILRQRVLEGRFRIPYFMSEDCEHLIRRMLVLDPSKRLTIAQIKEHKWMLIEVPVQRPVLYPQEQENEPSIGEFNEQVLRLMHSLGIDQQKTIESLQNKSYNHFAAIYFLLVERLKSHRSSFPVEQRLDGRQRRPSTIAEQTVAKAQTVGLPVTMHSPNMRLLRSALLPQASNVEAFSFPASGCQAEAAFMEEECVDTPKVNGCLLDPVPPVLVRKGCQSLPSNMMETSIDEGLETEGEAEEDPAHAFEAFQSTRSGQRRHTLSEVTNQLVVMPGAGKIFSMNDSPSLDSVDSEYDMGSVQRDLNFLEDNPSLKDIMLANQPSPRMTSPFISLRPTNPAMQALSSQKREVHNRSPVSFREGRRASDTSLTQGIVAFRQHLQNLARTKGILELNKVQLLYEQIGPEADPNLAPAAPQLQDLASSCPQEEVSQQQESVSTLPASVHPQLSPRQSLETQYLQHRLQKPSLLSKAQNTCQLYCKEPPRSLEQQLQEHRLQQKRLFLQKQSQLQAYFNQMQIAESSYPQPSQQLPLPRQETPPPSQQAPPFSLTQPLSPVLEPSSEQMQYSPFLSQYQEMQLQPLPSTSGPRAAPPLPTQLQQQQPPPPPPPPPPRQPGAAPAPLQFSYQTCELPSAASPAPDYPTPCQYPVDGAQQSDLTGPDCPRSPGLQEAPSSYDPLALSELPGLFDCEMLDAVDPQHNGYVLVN

Row | IC50 | SMILES
1 | 0.00231 µM | Cc1cc(-c2ccn3nc(Nc4cc(C)nc(C)n4)cc3c2)c(OCC(C)(C)C#N)cn1 [Example 262, 3-[[4-[2-[(2,6-dimethylpyrimidin-4-yl)amino]pyrazolo[1,5-a]pyridin-5-yl]-6-methyl-3-pyridyl]oxy]-2,2-dimethyl-propanenitrile]
2 | 0.00366 µM | Cc1cc(-c2ccn3nc(Nc4cc(C)c(=O)n(CC5CC5)n4)cc3c2)c(OCC(C)(C)O)cn1 [Example 265, 2-(cyclopropylmethyl)-6-[[5-[5-(2-hydroxy-2-methyl-propoxy)-2-methyl-4-pyridyl]pyrazolo[1,5-a]pyridin-2-yl]amino]-4-methyl-pyridazin-3-one]
3 | 0.00338 µM | Cc1cc(-c2ccn3nc(Nc4cc(C)nc(C)n4)cc3c2)c(O[C@H]2CC[C@H](S(C)(=O)=O)CC2)cn1 [Example 266, N-(2,6-dimethylpyrimidin-4-yl)-5-[2-methyl-5-(4-methylsulfonylcyclohexoxy)-4-pyridyl]pyrazolo[1,5-a]pyridin-2-amine]
4 | 0.00138 µM | COc1cc(Nc2cc3cc(-c4cc(C)ncc4OCC(C)(C)C#N)ccn3n2)cc(OC)c1C(=O)NC1CC1 [Example 268, 4-[[5-[5-(2-cyano-2-methyl-propoxy)-2-methyl-4-pyridyl]pyrazolo[1,5-a]pyridin-2-yl]amino]-N-cyclopropyl-2,6-dimethoxy-benzamide]
5 | 0.00153 µM | Cc1cc(-c2ccn3nc(Nc4cc(C)c(=O)n(C)n4)cc3c2)c(OCC(C)(C)C#N)cn1 [Example 269, 3-[[4-[2-[(1,5-dimethyl-6-oxo-pyridazin-3-yl)amino]pyrazolo[1,5-a]pyridin-5-yl]-6-methyl-3-pyridyl]oxy]-2,2-dimethyl-propanenitrile]
6 | 0.0234 µM | COc1ccccc1COc1cnc(C)cc1-c1ccn2nc(Nc3cc(C)nc(C)n3)cc2c1 [Example 271, N-(2,6-dimethylpyrimidin-4-yl)-5-[5-[(2-methoxyphenyl)methoxy]-2-methyl-4-pyridyl]pyrazolo[1,5-a]pyridin-2-amine]
7 | 0.00876 µM | Cc1cc(-c2ccn3nc(Nc4cc(C)nc(C)n4)cc3c2)c(OCc2cccc(O)c2)cn1 [Example 272, 3-[[4-[2-[(2,6-dimethylpyrimidin-4-yl)amino]pyrazolo[1,5-a]pyridin-5-yl]-6-methyl-3-pyridyl]oxymethyl]phenol]
8 | 0.037 µM | CCC1(COc2cnc(C)cc2-c2ccn3nc(Nc4cc(C)nc(C)n4)cc3c2)COC1 [Example 273, N-(2,6-dimethylpyrimidin-4-yl)-5-[5-[(3-ethyloxetan-3-yl)methoxy]-2-methyl-4-pyridyl]pyrazolo[1,5-a]pyridin-2-amine]
9 | 0.0291 µM | Cc1cc(-c2ccn3nc(Nc4cc(C)nc(C)n4)cc3c2)c(OCC2(CO)COC2)cn1 [Example 274, [3-[[4-[2-[(2,6-dimethylpyrimidin-4-yl)amino]pyrazolo[1,5-a]pyridin-5-yl]-6-methyl-3-pyridyl]oxymethyl]oxetan-3-yl]methanol]
10 | 0.0313 µM | Cc1cc(-c2ccn3nc(Nc4cc(C)nc(C)n4)cc3c2)c(OCC2(C#N)COC2)cn1 [Example 275, 3-[[4-[2-[(2,6-dimethylpyrimidin-4-yl)amino]pyrazolo[1,5-a]pyridin-5-yl]-6-methyl-3-pyridyl]oxymethyl]oxetane-3-carbonitrile]
11 | 0.00921 µM | Cc1cc(-c2ccn3nc(Nc4cc(C)nc(C)n4)cc3c2)c(O[C@H]2CCNC2)cn1 [Example 276, N-(2,6-dimethylpyrimidin-4-yl)-5-[2-methyl-5-[(3S)-pyrrolidin-3-yl]oxy-4-pyridyl]pyrazolo[1,5-a]pyridin-2-amine]
12 | 0.0139 µM | Cc1cc(-c2ccn3nc(NC(=O)C4CC4)cc3c2)c(O[C@H]2CCNC2)cn1 [Example 277, N-[5-[2-methyl-5-[(3S)-pyrrolidin-3-yl]oxy-4-pyridyl]pyrazolo[1,5-a]pyridin-2-yl]cyclopropanecarboxamide]
13 | 0.0025 µM | Cc1cc(-c2ccn3nc(Nc4cc(C)nc(C)n4)cc3c2)c(O[C@@H]2CNC[C@@H]2F)cn1 [Example 278, N-(2,6-dimethylpyrimidin-4-yl)-5-[5-[(3R,4S)-4-fluoropyrrolidin-3-yl]oxy-2-methyl-4-pyridyl]pyrazolo[1,5-a]pyridin-2-amine]
14 | 0.0032 µM | Cc1cc(-c2ccn3nc(NC(=O)C4CC4)cc3c2)c(O[C@@H]2CNC[C@@H]2F)cn1 [Example 279, N-[5-[5-[(3R,4S)-4-fluoropyrrolidin-3-yl]oxy-2-methyl-4-pyridyl]pyrazolo[1,5-a]pyridin-2-yl]cyclopropanecarboxamide]
15 | 0.0032 µM | CC#Cc1cc(-c2ccn3nc(NC(=O)C4CC4)cc3c2)c(O[C@H]2CCNC2)cn1 [Example 280, N-[5-[2-prop-1-ynyl-5-[(3S)-pyrrolidin-3-yl]oxy-4-pyridyl]pyrazolo[1,5-a]pyridin-2-yl]cyclopropanecarboxamide]
16 | 0.00102 µM | CC#Cc1cc(-c2ccn3nc(NC(=O)C4CC4)cc3c2)c(O[C@@H]2CNC[C@@H]2F)cn1 [Example 281, N-[5-[5-[(3R,4S)-4-fluoropyrrolidin-3-yl]oxy-2-prop-1-ynyl-4-pyridyl]pyrazolo[1,5-a]pyridin-2-yl]cyclopropanecarboxamide]

The next lines start with the compound.

Row | SMILES | IC50
17 | Cc1cc(-c2ccn3nc(NC(=O)C4CC4)cc3c2)c(OC[C@@]23CN[C@@H](CO2)C3)cn1 [Example 248, N-[5-[2-methyl-5-[[(1R,4R)-5-oxa-2-azabicyclo[2.2.1]heptan-4-yl]methoxy]-4-pyridyl]pyrazolo[1,5-a]pyridin-2-yl]cyclopropanecarboxamide] | 0.00712 µM
18 | Cc1cc(-c2ccn3nc(NC(=O)C4CC4)cc3c2)c(OC[C@]23C[C@H](CO2)N(C)C3)cn1 [Example 249, N-[5-[2-methyl-5-[[(1R,4R)-2-methyl-5-oxa-2-azabicyclo[2.2.1]heptan-4-yl]methoxy]-4-pyridyl]pyrazolo[1,5-a]pyridin-2-yl]cyclopropanecarboxamide] | 0.0237 µM
19 | Cc1cc(-c2ccn3nc(NC(=O)[C@@H]4C[C@H]4C)cc3c2)c(OC[C@]23C[C@H](CO2)N(C)C3)cn1 [Example 250, (1R,2R)-2-methyl-N-[5-[2-methyl-5-[[(1R,4R)-2-methyl-5-oxa-2-azabicyclo[2.2.1]heptan-4-yl]methoxy]-4-pyridyl]pyrazolo[1,5-a]pyridin-2-yl]cyclopropanecarboxamide] | 0.0217 µM
20 | Cc1cnc(Nc2cc3cc(-c4cc(C)ncc4OC[C@]45CN[C@H](CO4)C5)ccn3n2)cn1 [Example 251, 5-[2-methyl-5-[[(1S,4S)-5-oxa-2-azabicyclo[2.2.1]heptan-4-yl]methoxy]-4-pyridyl]-N-(5-methylpyrazin-2-yl)pyrazolo[1,5-a]pyridin-2-amine] | 0.00284 µM
21 | Cc1cc(Nc2cc3cc(-c4cc(C(F)(F)F)ncc4OC[C@@]45CN[C@@H](CO4)C5)ccn3n2)nc(C)n1 [Example 252, N-(2,6-dimethylpyrimidin-4-yl)-5-[5-[[(1R,4R)-5-oxa-2-azabicyclo[2.2.1]heptan-4-yl]methoxy]-2-(trifluoromethyl)-4-pyridyl]pyrazolo[1,5-a]pyridin-2-amine] | 0.0284 µM
22 | Cc1cc(-c2ccn3nc(NC(=O)C4CC4)cc3c2)c(OC[C@]23CN[C@H](CO2)C3)cn1 [Example 253, N-[5-[2-methyl-5-[[(1S,4S)-5-oxa-2-azabicyclo[2.2.1]heptan-4-yl]methoxy]-4-pyridyl]pyrazolo[1,5-a]pyridin-2-yl]cyclopropanecarboxamide] | 0.00479 µM
23 | Cc1cc(-c2ccn3nc(Nc4ccc(C)nn4)cc3c2)c(OC[C@@]23CN[C@@H](CO2)C3)cn1 [Example 254, 5-[2-methyl-5-[[(1R,4R)-5-oxa-2-azabicyclo[2.2.1]heptan-4-yl]methoxy]-4-pyridyl]-N-(6-methylpyridazin-3-yl)pyrazolo[1,5-a]pyridin-2-amine] | 0.00637 µM
24 | Cc1cc(-c2ccn3nc(Nc4ccc(C5CC5)nn4)cc3c2)c(OC[C@@]23CN[C@@H](CO2)C3)cn1 [Example 255, N-(6-cyclopropylpyridazin-3-yl)-5-[2-methyl-5-[[(1R,4R)-5-oxa-2-azabicyclo[2.2.1]heptan-4-yl]methoxy]-4-pyridyl]pyrazolo[1,5-a]pyridin-2-amine] | 0.00704 µM
25 | Cc1cc(-c2ccn3nc(Nc4ccc(C)nn4)cc3c2)c(OC[C@]23C[C@H](CO2)N(C)C3)cn1 [Example 256, 5-[2-methyl-5-[[(1R,4R)-2-methyl-5-oxa-2-azabicyclo[2.2.1]heptan-4-yl]methoxy]-4-pyridyl]-N-(6-methylpyridazin-3-yl)pyrazolo[1,5-a]pyridin-2-amine] | 0.0198 µM
26 | Cc1cnc(Nc2cc3cc(-c4cc(C)ncc4OC[C@@]45CN[C@@H](CO4)C5)ccn3n2)cn1 [Example 257, 5-[2-methyl-5-[[(1R,4R)-5-oxa-2-azabicyclo[2.2.1]heptan-4-yl]methoxy]-4-pyridyl]-N-(5-methylpyrazin-2-yl)pyrazolo[1,5-a]pyridin-2-amine] | 0.00446 µM
27 | Cc1cc(-c2ccn3nc(Nc4cc(C)nc(C)n4)cc3c2)c(OCC(O)(C(F)(F)F)C(F)(F)F)cn1 [Example 259, 2-[[4-[2-[(2,6-dimethylpyrimidin-4-yl)amino]pyrazolo[1,5-a]pyridin-5-yl]-6-methyl-3-pyridyl]oxymethyl]-1,1,1,3,3,3-hexafluoro-propan-2-ol] | 0.0153 µM
28 | Cc1cc(-c2ccn3nc(Nc4ccc5nccn5n4)cc3c2)c(OCC(C)(C)O)cn1 [Example 260, 1-[[4-[2-(imidazo[1,2-b]pyridazin-6-ylamino)pyrazolo[1,5-a]pyridin-5-yl]-6-methyl-3-pyridyl]oxy]-2-methyl-propan-2-ol] | 0.0183 µM
29 | Cc1cc(-c2ccn3nc(Nc4cc(C)nc(C(C)(C)C)n4)cc3c2)c(OCC(C)(C)O)cn1 [Example 261, 1-[[4-[2-[(2-tert-butyl-6-methyl-pyrimidin-4-yl)amino]pyrazolo[1,5-a]pyridin-5-yl]-6-methyl-3-pyridyl]oxy]-2-methyl-propan-2-ol] | 0.0239 µM
